Laboratory results: PMC5430874 (Scientific Reports, 2017)
Where a chain is given by its changes, count along the chain named.

Key:
[1] = system: rats; parameters: method as in PMID 26349500; conditions: cited from earlier work
[2] = target: T1, GPR139 L87F2x64 (Homo sapiens, UniProt Q6DWJ6, L87F); test: Fluo-4 Ca2+-assay, GPR139 mutant L87F; format: cell-based
T1 construct: mGluR5 signal peptide (N); expressed in transfected cells; host or cells: HEK293
T1 sequence (Q6DWJ6 2-353 L87F limits assumed): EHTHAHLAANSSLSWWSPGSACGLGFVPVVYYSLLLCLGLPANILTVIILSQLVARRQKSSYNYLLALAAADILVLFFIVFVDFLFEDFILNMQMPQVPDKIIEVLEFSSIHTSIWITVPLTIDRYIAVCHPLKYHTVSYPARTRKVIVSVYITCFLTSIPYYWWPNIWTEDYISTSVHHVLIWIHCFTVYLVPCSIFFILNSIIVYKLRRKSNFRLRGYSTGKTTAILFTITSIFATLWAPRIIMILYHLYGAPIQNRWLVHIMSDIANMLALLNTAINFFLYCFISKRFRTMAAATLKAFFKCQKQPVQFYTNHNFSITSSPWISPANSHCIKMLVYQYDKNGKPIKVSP
From the text: (§1) To study the influence of specific amino acids in the predicted binding pocket on receptor function, the desired mutations were introduced into an N-terminally c-myc-tagged wild type human GPR139 (NM_001002911.3) in the pEGFP-N1 vector (BD Biosciences)[32], [33]. As previously described, these plasmids carry the signal peptide of mGluR5 to promote cell surface expression followed by a c-myc epitope to enable detection of total and surface expression by ELISA, followed by an engineered MluI and NotI site for easy insertion of the receptor of interest. Furthermore, the start-codon in the GPR139 sequence was deleted to ensure c-myc-tagging. […]
(§2) The Ca^2+ measurements were preformed using the Fluo-4 NW Calcium Assay Kit (Invitrogen, Molecular Probes, F36206) as previously described. […] Intracellular calcium changes were recorded as indicated on either a NOVOstar (BMG Labtech) at 37 °C with an excitation filter of 485 nm and an emission filters 520 nm or a FlexStation 3 Benchtop Multi-Mode Microplate Reader (Molecular Devices) at 37 °C with an excitation wavelength of 485 nm and emission of 525 nm.
(§3) All pharmacological data have been analyzed by using Prism 6.0 (GraphPad Software Inc., San Diego). […] Changes in potency (pEC50) and span of myc-GPR139(WT) in comparison to untagged GPR139(WT) was statistically analyzed with a paired t-test and significance was accepted at p < 0.05. […]

[3] = target: T2, GPR139 E108A3x29 +E105A3x32 (Homo sapiens, UniProt Q6DWJ6, E105A/E108A); test: Fluo-4 Ca2+-assay, GPR139 double mutant E105A_E108A; format: cell-based
T2 construct: mGluR5 signal peptide (N); expressed in transfected cells; host or cells: HEK293
T2 sequence (Q6DWJ6 2-353 E105A/E108A limits assumed): T1 sequence (Q6DWJ6 2-353 L87F limits assumed) with F86L, E104A, E107A
From the text: as §1, §2, §3

| EC50 ([2]; L87F mutant) | Emax ([2]; L87F, normalized to buffer (0%) and 8 µM 1a (100%)) | EC50 [3] | Emax ([3]; normalized to buffer (0%) and 8 µM 1a (100%)) | Compound | spontaneous locomotion activity [1] |
| --- | --- | --- | --- | --- | --- |
| – | – | – | – | C[C@@H](NC(=O)CNC(=O)c1cccc(Cl)c1)c1ccccc1 (racemic) [Compound 7c] | decreased spontaneous locomotion activity |
| 427 nM | 97 ± 14% | 200 nM | 196 ± 25% | COc1cc(OC)cc(C(=O)NNC(=O)Nc2cccc3ccccc23)c1 [Compound 1a] | – |
